Assays:
Type in all cases: cell-based, human
[1] = test system: NF-kB-regulated gene products in H1299 cells; test: Western blot of TNF-induced NF-kB-regulated gene products
Description: (A) Honokiol inhibits COX-2, MMP-9, ICAM-1, and VEGF expression induced by TNF. H1299 cells (2×10^6/ml) were left untreated or incubated with […] honokiol for 12 h and then treated with 0.1 nM TNF for different times. Whole-cell extracts were prepared, and […] of the whole-cell lysate was analyzed by Western blotting using antibodies against VEGF, MMP-9, and COX-2. (B) Honokiol inhibits cyclin D1 and c-myc expression induced by TNF. H1299 cells (2×10^6/ml) were left untreated or incubated with […] honokiol for 12 h and then treated with 0.1 nM TNF for different times. Whole-cell extracts were prepared, and […] of the whole-cell lysate was analyzed by Western blotting using antibodies against cyclin D1 and c-myc. […] (C) Honokiol inhibits the expression of anti-apoptotic gene products cIAP1, cIAP2 Bcl-x1, Bcl-2, cFLIP, TRAF2, and survivin. H1299 cells (2×10^6/ml) were left untreated or incubated with […] honokiol for 12 h and then treated with 0.1 nM TNF for different times. Whole-cell extracts were prepared, and […] of the whole-cell lysate was analyzed by Western blotting using antibodies against IAP1, IAP2, bcl-x1, bcl-2, cFLIP, and survivin as indicated.
Western blot analysis. […] Cytoplasmic protein […] was resolved on 10% SDS-PAGE gel, transferred to a nitrocellulose membrane, blocked with 5% non-fat milk, and probed with specific antibodies against IkBa, posphorylated IkBa, p65, and phosphorylated p65. To determine the expression of cyclin D1, COX-2, MMP-9, cIAP-1, TRAF1, Bcl-2, Bfl-1, cFLIP, and survivin in whole-cell extracts of treated cells (2×10^6 cells in 2 ml of medium), […] of protein was resolved on SDS-PAGE and probed by Western blot with specific antibodies as per the manufacturer's recommended protocol. The blots were washed, exposed to HRP-conjugated secondary antibodies for 1 h, and finally detected by ECL reagent (Amersham Pharmacia Biotechnology, Piscataway, N.J.). The bands were quantified using a Personal Densitometer Scan v1.30 using Imagequant software version 3.3 (Molecular Dynamics). […]

COX2 promoter = test: COX-2 promoter-dependent reporter luciferase gene expression; details: 0.1 nM TNF 24 h
Description: H1299 cells were transiently transfected with a COX-2 promoter plasmid linked to the luciferase gene and then treated with the indicated concentrations of honokiol. After 24 h in culture with 0.1 nM TNF, cell supernatants were collected and assayed for luciferase activity. Results are expressed as fold activity over the activity of the vector control. Values are means ±SD (indicated as error bars) of triplicate cultures for a representative experiment out of 3 independent ones showing similar results.
COX-2 promoter-dependent reporter luciferase gene expression. COX-2 promoter activity was examined as described elsewhere (Shishodia, S., et al. 2003 Cancer Res. 63:4375-4383). To further determine the effect of honokiol on COX-2 promoter, A293 cells were seeded at a concentration of 1.5×10^5 cells per well in six-well plates. […] The COX-2 promoter (−375 to +59), which was amplified from human genomic DNA by using the primers 5′-[sequence]-3′ (sense) and 5′-[sequence]-3′ (antisense). After a 6-h exposure to the transfection mixture, the cells were incubated in medium containing honokiol for 12 h. The cells were exposed to TNF (0.1 nM) for 24 h and then harvested. Luciferase activity was measured by using the Luclite luciferase assay system (Perkin-Elmer, Boston, Mass.) according to the manufacturer's protocol and detected by luminometer (Victor 3, Perkin-Elmer).

H1299 cells = test: Invasion assay (Matrigel)
Description: (A) RAW 264.7 cells (1×10^4) were plated overnight, pretreated with 5 mM honokiol for 12 h, and then treated with 5 nM RANKL. At 4 and 5 days later, cells were stained for TRAP and evaluated for osteoclastogenesis. Photographs were taken after 5 days of incubation with RANKL. (B) The numbers of TRAP-positive multinucleated osteoclasts (>3 nuclei) per well were counted. (C) H1299 cells (2.5×10^4) were seeded into the upper wells of a Matrigel invasion chamber overnight in the absence of serum, pretreated with […] honokiol for 12 h, treated with 1 nM TNF for 24 h in the presence of 1% serum, and then subjected to invasion assay. The value for no honokiol and no TNF was set to 1.0.
Invasion assay. The membrane invasion culture system was used to assess cell invasion because invasion through the extracellular matrix is a crucial step in tumor metastasis. […] The cells that invaded through the Matrigel (i.e., those that migrated to the lower chamber during incubation) were stained with […] calcein-AM (Molecular Probes) in PBS for 30 min at 37° C. and scanned for fluorescence with a Victor 3 multi-plate reader (Perkin Elmer Life and Analytical Sciences, Boston, Mass.); fluorescent cells were counted. […]

## C=CCc1ccc(O)c(-c2ccc(O)c(CC=C)c2)c1 [HNK, Honokiol]
[1]; H1299
  TNF-induced expression of VEGF, COX-2, ICAM-1 and MMP-9: abolished the expression
  TNF-induced expression of cyclin D1 and c-myc: abolished, in a time-dependent fashion, the TNF-induced expression of cyclin D1 and c-myc
[1]; cIAP1, cIAP-2, BCl-2, Bcl-xL, cFLIP, TRAF1, and survivin
  TNF-induced expression of anti-apoptotic gene products: inhibited the TNF-induced expression of all of these proteins
COX2 promoter
  TNF-induced COX2 promoter activity: inhibited the TNF-induced COX2 promoter activity in a dose-dependent manner
H1299 cells; H1299, 10 mM (printed) honokiol 12 h, 1 nM TNF 24 h
  TNF-induced tumor cell invasion: suppressed this activity
H1299 cells; H1299, no TNF
  invasion activity of honokiol alone: had no invasion activity

Source: US20080300298A1, “Honokiol Derivates For the Treatment of Proliferative Disorders” (priority 2005, published 2008)
